US8841083B2, “PSA capture agents, compositions, methods and preparation thereof” (California Institute of Technology, priority 2011, dated 2014)

Assays:
free PSA [1] = biological target: T1, free PSA (Homo sapiens, UniProt P07288); assay: Dot blot of serially diluted free PSA probed with biotinylated capture agent; type: binding; settings: for lower limit of detection: free PSA on nitrocellulose, 0.1 μM capture agent
T1 construct: purchased Scripps Laboratories P0725
Description: Serially diluted free PSA (Scripps Laboratories #P0725) in PBS pH 7.4 was applied to nitrocellulose by micropipette. The membrane was blocked at 4° C. for 2 hours in 5% non-fat dry milk in TBS (25 mM Tris, 150 mM NaCl, pH 7.25). The membrane was washed with TBS (3×). The biotinylated PSA capture agent was prepared at 0.1 μM in 0.5% milk in TBS+0.03% DMSO (v/v) and incubated over the membrane at 4° C. overnight. After washing with TBS (3×), the membrane was further subjected to 0.1 μg/mL HRP-conjugated Streptavidin (Abcam) in TBS containing 0.02% Tween20 (v/v) for 30 min at 4° C.

free PSA [2] = biological target: T1, free PSA; assay: Enzyme activity assay of PSA with chymotrypsin substrate Suc-Arg-Pro-Tyr-pNA; type: biochemical; settings: for minimum peptide concentration affecting the activity: PSA 333 nM
Description: The enzyme activity of free PSA was studied in the presence of capture agent and the chymotrypsin substrate Suc-Arg-Pro-Tyr-pNA (AnaSpec, San Jose, Calif.) (see, e.g., Wu 2000). PSA (333 nM) was incubated with a 1-100-fold fold molar excess of capture agent in TBS (25 mM Tris, 150 mM NaCl) buffer, pH 7.8, for 1 hour at 23° C. Separately, the inhibitory effect of Zn^2+ on the enzyme activity of PSA was studied by including 1-200 μM ZnCl2 in the reaction buffer as a control. After addition of substrate to a final concentration 0.4 mM, the absorbance was monitored at 5-min intervals over 80 min at 405 nm on a Beckman Coulter DTX880 photometer (Brea, Calif.). Enzyme activity of PSA was tested in the absence of both Zn^2+ and capture agent to provide a measure of basal activity. All assays were performed in triplicate.

free PSA [3] = biological target: T1, free PSA; assay: Pull-down assay and Western blot; type: binding; settings: 1 μg free PSA in TBS buffer
Description: The pull-down assay assessed the specificity of a PSA capture agent by measuring its ability to purify a protein from complex media; bound to the protein in buffer or human serum in solution. The PSA/capture agent complex was then physically isolated from the sample with solid-phase affinity resins. The captured samples were separated by SDS-PAGE for Western blot analysis.
Pull-down detection of PSA was performed using a modified immunoprecipitation technique that incorporated PSA capture agent rather than antibody. […] A third sample contained biotinylated PSA capture agent (0.3-0.5 μg/mL) and 1 μg free PSA in 2 mL TBS, and similarly interacted at 4° C. overnight.
Proteins were captured by BSA-blocked Dynabeads® M-280 Streptavidin (Invitrogen, #112-05D) under rotation at 4° C. for 4 hours (50 μL of 50% slurry per pull-down condition). Proteins were eluted from beads in reducing Laemmli buffer, and beads were separated from the serum or buffer by DynaMag™-Spin magnet (Invitrogen, #123-20D). Samples were subjected to 4-20% SDS-PAGE separation and electrophoretically transferred to a nitrocellulose membrane in 25 mM Tris, 192 mM Glycine, pH 8.3, containing 20% (v/v) methanol (Bio-Rad Laboratories, Hercules, Calif.) at 100 V for 45 min. Following transfer, the nitrocellulose membrane was blocked at 4° C. for 2 hours in 5% non-fat dry milk in TBS. […]

free PSA [4] = biological target: T1, free PSA; assay: Sandwich ELISA with capture agent as detection agent, paired with PS6 capture antibody; type: binding
Description: MAXISORP™ microtiter plates were coated with anti-human PSA (PS6, Abcam) at 10 μg/mL in PBS pH 7.4 for 2 hours at room temperature. After washing each microwell with PBS (3×), the plate was filled with 5% non-fat dry milk in TBS (25 mM Tris, 150 mM NaCl, pH 7.25) and blocked for 2 h at room temperature. Serially diluted free PSA (Scripps Laboratories #P0725) in 1% BSA in TBS was incubated across the microtiter plate for 2 h at room temperature. The plate was washed with 1% BSA in TBS (5×), and then 2 μM biotinylated capture agent in 1% BSA in TBS+0.1% DMSO (v/v) was incubated for 1 hour at room temperature. After washing all microwells with 1% BSA in TBS (5×), 0.1 μg/mL Streptavidin Poly-HRP conjugate (Pierce, Ill.) in 1% BSA in TBS was incubated for 30 min at room temperature. The plate was washed with 1% BSA in TBS (10×), followed by TBS (2×), and then developed by adding QuantaRed™ Enhanced Chemifluorescent HRP Substrate (Pierce, Ill.). Using an excitation wavelength of 535 nm, fluorescent emission at 595 nm was recorded by Beckman Coulter DTX880 photometer (Brea, Calif.) as a function of target concentration. The titration curves were fit using a four-parameter regression curve fitting program (Origin 8.5, Northampton, Mass.). Assays were performed in triplicate.

T1 sequence (P07288 25-261): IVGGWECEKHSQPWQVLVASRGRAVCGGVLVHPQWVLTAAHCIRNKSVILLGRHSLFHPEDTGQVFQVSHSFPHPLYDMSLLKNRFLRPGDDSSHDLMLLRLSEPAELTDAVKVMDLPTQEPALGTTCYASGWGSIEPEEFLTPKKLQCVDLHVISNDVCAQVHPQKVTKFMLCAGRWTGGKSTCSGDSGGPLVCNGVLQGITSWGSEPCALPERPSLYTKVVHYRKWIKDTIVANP

## biotin-PEG5-cyclic(CVFAHNYDYLVC)-Tz-4-Gllffk [1,4Tz-biligand]
Free PSA [1]
  lower limit of detection: 0.28 µg

## biotin-PEG5-cyclic(CVFAHNYDYLVC)-Tz5-Gllffk [1,5Tz-biligand]
Free PSA [1]; dot blot, triazole regioisomers
  limit of detection compared to 1,4Tz-biligand: improved limit of detection
Free PSA [1]
  lower limit of detection: 0.14 µg
Free PSA [2]
  minimum peptide concentration affecting the activity: 0.159 µM

## [Cl-].[Cl-].[Zn+2] [Zn^2+, zinc chloride, reference compound]
Free PSA [2]
  inhibition of PSA enzyme activity: inhibits the enzyme activity of PSA

## biotin-PEG5-cyclic(CVFAHNYDYLVC) [Anchor Ligand]
Free PSA [2]
  minimum peptide concentration affecting the activity: 0.250 µM

## biotin-PEG5-cyclic(CVFAHNYDYLVC)-Tz5-Gllffk-Tz5-rrivk [PSA capture agent triligand]
Free PSA [1]; dot blot
  performance compared to anti-human PSA monoclonal antibody PS1: superior performance
  sensitivity compared to commercial PSA monoclonal antibodies PS2, PS6: less sensitive
Free PSA [1]
  lower limit of detection: 0.14 µg
Free PSA [3]
  pull-down detection of free PSA: detected free PSA in buffer
Free PSA [4]; free PSA, sandwich ELISA with PS6 capture antibody
  limit of quantitation (LOQ): ~4 ng/mL
Free PSA [4]; sandwich ELISA
  enhanced sensitivity over the PSA capture agent biligand: > 2 fold
